Patent US12600732B2, “Bifunctional compounds for degrading BTK via ubiquitin proteosome pathway” (NURIX THERAPEUTICS, INC., priority 2019, dated 2026)

Molecular target: T1, BTK (Mus musculus, UniProt P35991)
T1 construct: from tissue; host or cells: mouse blood B cells / splenocytes (CD-1 or BALB/c)
Experiment: In vivo degradation of BTK in mouse PD experiments with oral dosing
Conditions: oral dose 1 mg/kg, 6 h, splenocytes, HTRF
Protocol: A method of determining the pharmacodynamic profile of BTK degraders was performed by dosing either CD-1 or BALB/c mice with CTM. The CTM was prepared in a suitable formulation and was administered via oral gavage (PO) at a suitable dose level and frequency as informed by prior pharmacokinetic and tolerability studies. Following administration of CTM, BTK levels in blood or splenocytes are measured using flow cytometry or HTRF. For assessment of BTK levels via flow cytometry, either whole blood or splenocytes were first treated with ACK RBC lysis buffer to facilitate lysing of red blood cells. Remaining cells were then stained with fluorophore-conjugated antibodies against CD45, TCR beta and CD45R (B220). Cell pellets were washed with 1×PBS, fixed, and permeabilized for twenty-four hours with Foxp3/Transcription Factor Fixation/Permeabilization Kit. Cells were then stained intracellularly with unconjugated BTK antibody and detected with a fluorophore-conjugated secondary antibody. Stained cells were run on an Attune N×T Acoustic Focusing Flow Cytometer (Thermo-Fisher A29004), and data was analyzed using FlowJo (v10.5.3) and GraphPad Prism (v7.00) software. Lymphocytes were gated for B cells defined as CD45+ TCR beta−B220+ and T cells as CD45+ TCR beta+B220−. The BTK geometric mean fluorescence intensity (MFI) was calculated for B and T cells. Percent BTK degradation for each compound-treated sample was calculated using the equation described below: % Degradation=100*(Treated sample B cell BTK MFI-treated sample T cell BTK MFI)/Vehicle B cell BTK MFI-Vehicle T cell BTK MFI)
This example evaluates in vivo activity of BTK CTMs via a direct mouse PD measurement following oral dosing
Screens were completed at 90 mg/kg for six hours, and then changed to lower doses/longer time points after seeing strong BTK degradation activity with an initial set of compounds. This assay was useful in selecting compounds for in vivo efficacy experiments.

T1 sequence (P35991 whole entry): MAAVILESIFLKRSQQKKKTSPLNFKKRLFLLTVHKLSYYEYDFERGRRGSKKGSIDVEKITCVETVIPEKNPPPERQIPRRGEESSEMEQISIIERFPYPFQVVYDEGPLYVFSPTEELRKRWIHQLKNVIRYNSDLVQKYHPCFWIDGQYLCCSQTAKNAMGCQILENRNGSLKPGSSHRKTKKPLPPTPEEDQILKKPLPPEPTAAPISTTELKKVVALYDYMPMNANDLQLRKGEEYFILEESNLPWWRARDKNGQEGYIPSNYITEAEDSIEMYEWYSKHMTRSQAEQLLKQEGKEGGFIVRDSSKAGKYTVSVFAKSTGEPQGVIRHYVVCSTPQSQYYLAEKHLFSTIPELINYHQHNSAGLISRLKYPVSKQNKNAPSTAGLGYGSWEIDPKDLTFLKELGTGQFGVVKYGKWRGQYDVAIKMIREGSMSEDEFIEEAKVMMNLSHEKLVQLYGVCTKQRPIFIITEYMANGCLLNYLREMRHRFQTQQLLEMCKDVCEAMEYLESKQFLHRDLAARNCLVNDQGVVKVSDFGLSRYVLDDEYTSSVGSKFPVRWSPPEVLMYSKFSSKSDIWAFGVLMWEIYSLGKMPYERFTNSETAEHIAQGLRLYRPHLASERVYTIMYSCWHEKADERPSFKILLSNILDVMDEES

Compared with `CN1CCN([C@@H]2CCCN(c3cnc(C(N)=O)c(Nc4ccc(C5CCN(C[C@@H]6CCCN(c7ccc8c(c7)C(=O)N(C7CCC(=O)NC7=O)C8=O)C6)CC5)cc4)n3)C2)C1=O` (stereo partly drawn) [Compound 32, 3-((4-(1-(((3S)-1-(2-(2,6-dioxopiperidin-3-yl)-1,3-dioxoisoindolin-5-yl)piperidin-3-yl)methyl)piperidin-4-yl)phenyl)amino)-5-((R)-3-(3-methyl-2-oxoimidazolidin-1-yl)piperidin-1-yl)pyrazine-2-carboxamide], `CN1CCN([C@@H]2CCCN(c3cnc(C(N)=O)c(Nc4ccc(C5CN(C[C@H]6CCN(c7ccc8c(c7)C(=O)N(C7CCC(=O)NC7=O)C8=O)C6)C5)cc4)n3)C2)C1=O` (some centres unmarked) [Compound 35] is lower in “% BTK Remaining” value: 93% for the first, 74% for the second.

Going from `CN1CCN([C@@H]2CCCN(c3cnc(C(N)=O)c(Nc4ccc(C5CCN(C[C@@H]6[C@H]7CN(c8ccc9c(c8)C(=O)N(C8CCC(=O)NC8=O)C9=O)C[C@@H]67)CC5)cc4)n3)C2)C1=O` (some centres unmarked) [Compound 39] to `CN1CCN([C@H]2CCCN(c3cnc(C(N)=O)c(Nc4ccc(N5CC6CN(c7ccc8c(c7)C(=O)N(C7CCC(=O)NC7=O)C8=O)CC6C5)cc4)n3)C2)C1=O` (some centres unmarked) [Compound 79], the “% BTK Remaining” value rises from 79% to 102%.

Going from `CN1CCN([C@@H]2CCCN(c3cnc(C(N)=O)c(Nc4ccc(N5CCN(CCC6CCN(c7ccc8c(c7)C(=O)N(C7CCC(=O)NC7=O)C8=O)CC6)CC5)cc4)n3)C2)C1=O` (some centres unmarked) [Compound 40] to `CN1CCN([C@@H]2CCCN(c3cnc(C(N)=O)c(Nc4ccc(N5CCN(C[C@H]6CCN(c7ccc8c(c7)C(=O)N(C7CCC(=O)NC7=O)C8=O)C6)CC5)nc4)n3)C2)C1=O` (some centres unmarked) [Compound 113], the “% BTK Remaining” value falls from 82% to 70%.

Compared with `CN1CCN([C@@H]2CCCN(c3cnc(C(N)=O)c(Nc4ccc(N5CC6CN(Cc7ccc8c(c7)C(=O)N(C7CCC(=O)NC7=O)C8=O)CC6C5)cc4)n3)C2)C1=O` (some centres unmarked) [Compound 76], `CN1CCN([C@H]2CCCN(c3cnc(C(N)=O)c(Nc4ccc(N5CCC6(CCCN(Cc7ccc8c(c7)C(=O)N(C7CCC(=O)NC7=O)C8=O)C6)CC5)cc4)n3)C2)C1=O` (some centres unmarked) [Compound 108] is higher in “% BTK Remaining” value: 100% for the first, 116% for the second.

For `CN1CCN([C@@H]2CCCN(c3cnc(C(N)=O)c(Nc4ccc(N5CCC6CCN(c7cccc8c7C(=O)N(C7CCC(=O)NC7=O)C8=O)CC6C5)cc4)n3)C2)C1=O` (some centres unmarked) [Compound 105], the “% BTK Remaining” value was 85%.

Same assay, conditions: oral dose 30 mg/kg, 24 h, blood, analysis method not given

For `CN1CCN([C@@H]2CCCN(c3cnc(C(N)=O)c(Nc4ccc(N5CCN(C[C@H]6CCN(c7ccc8c(c7)C(=O)N(C7CCC(=O)NC7=O)C8=O)C6)CC5)nc4)n3)C2)C1=O` (some centres unmarked) [Compound 113], the “% BTK Remaining” value was 59%.

Same assay, conditions: oral dose 30 mg/kg, 24 h, blood, flow cytometry

First: CN1CCN([C@@H]2CCCN(c3cnc(C(N)=O)c(Nc4ccc(C5CCN(CC6CN(c7ccc8c(=O)n(C9CCC(=O)NC9=O)ccc8c7)C6)CC5)cc4)n3)C2)C1=O (some centres unmarked) [Compound 116]
Second: NC(=O)c1ncc(N2CCC[C@H](N3CCCC3=O)C2)nc1Nc1ccc(C2CCN(CC3CCN(c4ccc5c(=O)n(C6CCC(=O)NC6=O)ccc5c4)CC3)CC2)cc1 (some centres unmarked) [Compound 144]
The “% BTK Remaining” value of the first is higher: 39% for the first, 29% for the second.

First: CN1CCN([C@@H]2CCCN(c3cnc(C(N)=O)c(Nc4ccc(C5CCN(C[C@H]6CCN(c7ccc8c(c7)CN(C7CCC(=O)NC7=O)C8=O)C6)CC5)cc4)n3)C2)C1=O (some centres unmarked) [Compound 117]
Second: CN1CCN([C@@H]2CCCN(c3cnc(C(N)=O)c(Nc4ccc(C5CCN(C[C@H]6CCN(c7ccc8c(c7)n(C)c(=O)n8[C@@H]7CCC(=O)NC7=O)C6)CC5)cc4)n3)C2)C1=O [Compound 198]
The “% BTK Remaining” value of the first is higher: 49% for the first, 25% for the second.

Going from `CN1CCN([C@H]2CCCN(c3cnc(C(N)=O)c(Nc4ccc(C5CCN(C[C@@H]6CCN(c7ccc(-c8nn(C9CCC(=O)NC9=O)c(=O)n8C)cc7)C6)CC5)cc4)n3)C2)C1=O` (some centres unmarked) [Compound 142] to `Cn1c(-c2ccc(N3CCC(CN4CCC(c5ccc(Nc6nc(N7CCC[C@H](N8CCCC8=O)C7)cnc6C(N)=O)cc5)CC4)CC3)cc2)nn(C2CCC(=O)NC2=O)c1=O` (some centres unmarked) [Compound 143], the “% BTK Remaining” value falls from 43% to 37%.

Going from `Cn1cc(Nc2nc(N3CCC[C@@H](N4CCC5(CN(CC6CCN(c7ccc8c(=O)n(C9CCC(=O)NC9=O)ccc8c7)CC6)C5)C4=O)C3)cnc2C(N)=O)cn1` (some centres unmarked) [Compound 145] to `NC(=O)c1ncc(N2CCC[C@@H](N3CCOC3=O)C2)nc1Nc1ccc(C2CCN(CC3CCN(c4ccc5c(=O)n(C6CCC(=O)NC6=O)ccc5c4)CC3)CC2)cc1` (some centres unmarked) [Compound 153], the “% BTK Remaining” value falls from 100% to 33%.

Compared with `NC(=O)c1ncc(N2CCCC(N3CCCC3=O)C2)nc1Nc1ccc(C2CCN(C[C@@H]3CCN(c4ccc5c(c4)C(=O)N(C4CCC(=O)NC4=O)C5=O)C3)CC2)cc1` (some centres unmarked) [Compound 146], `Cn1c(=O)n([C@@H]2CCC(=O)NC2=O)c2ccc(N3CC[C@H](CN4CCC(c5ccc(Nc6nc(N7CCCCC7)cnc6C(N)=O)cc5)CC4)C3)cc21` [Compound 196] is lower in “% BTK Remaining” value: 37% for the first, 33% for the second.

With `Cn1c(=O)n([C@@H]2CCC(=O)NC2=O)c2ccc(N3CC[C@@H](CN4CCC(c5ccc(Nc6nc(N7CCCCC7)cnc6C(N)=O)cc5)CC4)C3)cc21` [Compound 197] the “% BTK Remaining” value was 13%.

Same assay, conditions: oral dose 30 mg/kg, 24 h, splenocytes, HTRF

Compared with `CN1CCN([C@@H]2CCCN(c3cnc(C(N)=O)c(Nc4ccc(N5CCN(C[C@H]6CCN(c7ccc8c(c7)C(=O)N(C7CCC(=O)NC7=O)C8=O)C6)CC5)nc4)n3)C2)C1=O` (some centres unmarked) [Compound 113], `NC(=O)c1ncc(N2CCC[C@@H](N3CCCC3=O)C2)nc1Nc1ccc(N2CC(C3CCN(c4ccc5c(c4)C(=O)N(C4CCC(=O)NC4=O)C5=O)CC3)C2)nc1` (some centres unmarked) [Compound 168] is higher in “% BTK Remaining” value: 52% for the first, 84% for the second.

Compared with `CN1CCN([C@@H]2CCCN(c3cnc(C(N)=O)c(Nc4ccc(C5CN(CC6CCN(c7cnn(C8CCC(=O)NC8=O)c(=O)c7)CC6)C5)cc4)n3)C2)C1=O` (some centres unmarked) [Compound 118], `CN1CCN([C@@H]2CCCN(c3cnc(C(N)=O)c(Nc4ccc(C5CCN(CC6CCN(c7cnn(C8CCC(=O)NC8=O)c(=O)c7)CC6)CC5)cc4)n3)C2)C1=O` (some centres unmarked) [Compound 120] is lower in “% BTK Remaining” value: 85% for the first, 59% for the second.

First: CN1CCN([C@@H]2CCCN(c3cnc(C(N)=O)c(Nc4ccc(C5CN(CC6CCN(c7ccc(-c8nn(C9CCC(=O)NC9=O)c(=O)n8C)cc7)CC6)C5)cc4)n3)C2)C1=O (some centres unmarked) [Compound 119]
Second: CN1CCN([C@@H]2CCCN(c3cnc(C(N)=O)c(Nc4ccc(C5CCN(CC6CCN(c7ccc(OC8CCC(=O)NC8=O)cn7)CC6)CC5)cc4)n3)C2)C1=O (some centres unmarked) [Compound 165]
The “% BTK Remaining” value of the first is higher: 77% for the first, 29% for the second.

Going from `NC(=O)c1ncc(N2CCCCC2)nc1Nc1ccc(C2CCN(CC3CCN(c4ccc(OC5CCC(=O)NC5=O)cn4)CC3)CC2)cc1` (centres unmarked) [Compound 164] to `NC(=O)c1ncc(N2CCC3(COC3)C2)nc1Nc1ccc(C2CCN(C[C@H]3CCN(c4ccc5c(c4)C(=O)N(C4CCC(=O)NC4=O)C5=O)C3)CC2)cc1` (some centres unmarked) [Compound 176], the “% BTK Remaining” value rises from 29% to 48%.

In the case of `NC(=O)c1ncc(N2CCC(F)(F)C(CO)C2)nc1Nc1ccc(C2CCN(C[C@H]3CCN(c4ccc5c(c4)C(=O)N(C4CCC(=O)NC4=O)C5=O)C3)CC2)cc1` (some centres unmarked) [Compound 175], the “% BTK Remaining” value is reported as 62%.

Same assay, conditions: oral dose 90 mg/kg, 6 h, splenocytes, HTRF

Going from `CN1CCN([C@@H]2CCCN(c3cnc(C(N)=O)c(Nc4ccc(C5CCN(CCC6CCN(c7ccc8c(c7)C(=O)N(C7CCC(=O)NC7=O)C8=O)CC6)CC5)cc4)n3)C2)C1=O` (some centres unmarked) [Compound 41] to `CN1CCN([C@@H]2CCCN(c3cnc(C(N)=O)c(Nc4ccc(C5CCN(CCC6CN(c7ccc8c(c7)C(=O)N(C7CCC(=O)NC7=O)C8=O)C6)CC5)cc4)n3)C2)C1=O` (some centres unmarked) [Compound 45], the “% BTK Remaining” value falls from 15% to 8%.

First: CN1CCN([C@@H]2CCCN(c3cnc(C(N)=O)c(Nc4ccc(N5CCN(CCC6CN(c7ccc8c(c7)C(=O)N(C7CCC(=O)NC7=O)C8=O)C6)CC5)cc4)n3)C2)C1=O (some centres unmarked) [Compound 43]
Second: CN1CCN([C@@H]2CCCN(c3cnc(C(N)=O)c(Nc4ccc(N5CCN(C[C@@H]6CCCN(c7ccc8c(c7)C(=O)N(C7CCC(=O)NC7=O)C8=O)C6)CC5)cc4)n3)C2)C1=O (some centres unmarked) [Compound 46]
The “% BTK Remaining” value of the first is lower: 4% for the first, 14% for the second.

Compared with `CN1CCN([C@@H]2CCCN(c3cnc(C(N)=O)c(Nc4ccc(N5CCN(C[C@H]6CCCN(c7ccc8c(c7)C(=O)N(C7CCC(=O)NC7=O)C8=O)C6)CC5)cc4)n3)C2)C1=O` (some centres unmarked) [Compound 48], `CN1CCN([C@@H]2CCCN(c3cnc(C(N)=O)c(Nc4ccc(C5CCN(C[C@H]6CCCN(c7ccc8c(c7)C(=O)N(C7CCC(=O)NC7=O)C8=O)C6)CC5)cc4)n3)C2)C1=O` (some centres unmarked) [Compound 50] is higher in “% BTK Remaining” value: 7% for the first, 9% for the second.

Going from `CN1CCN([C@@H]2CCCN(c3cnc(C(N)=O)c(Nc4ccc(C5CCN(C[C@@H]6CCN(c7ccc8c(c7)C(=O)N(C7CCC(=O)NC7=O)C8=O)C6)CC5)cc4)n3)C2)C1=O` (some centres unmarked) [Compound 52] to `CN1CCN([C@@H]2CCCN(c3cnc(C(N)=O)c(Nc4ccc(C5(C)CCN(c6ccc7c(c6)C(=O)N(C6CCC(=O)NC6=O)C7=O)CC5)cc4)n3)C2)C1=O` (some centres unmarked) [Compound 58], the “% BTK Remaining” value rises from 2% to 89%.
